Laboratory results taken from EP4786540A1, “POLYMER COMPOSITION AND METHOD FOR PRODUCING SAME, FORMULATION, CROSSLINKED PRODUCT, AND TIRE” (priority 2023, dated 2025).

Columns and labels:
[1] = pH of the acid forming the acid component (pH meter, 20°C); type: physicochemical; settings: organic acid 1.0 g in purified water 1.0 L, inorganic acid 0.1-mol/L aqueous solution, for a salt, pH of the acid forming it
Method: No particular limitation is imposed on the acidity of the acid forming the acid component (B), which is specifically the pH of the acid forming the acid component (B) at 20°C, is for example, 1 to 6. […] When the acid component (B) is an inorganic acid, the pH corresponds to a value measured by use of a […] aqueous solution. In the case of a metal salt of the acid, the pH corresponds to the pH of the acid forming the metal salt thereof.
The pH of a liquid prepared by mixing an acid (1.0 g) and purified water (1.0 L) was measured at 20°C by means of a pH meter (product of HORIBA, Ltd.). In the case of an organic acid salt, the pH of the acid forming the salt was measured.
The pH of a 0.1-mol/L aqueous solution of the acid employed was measured at 20°C in the same manner as employed above.

physchem = assay: physchem
Method: The acid component (B) preferably has high solubility in a good solvent for the modified conjugated diene-based polymer (A).
An acid or a metal salt thereof (1.0 g) was added to cyclohexane (1.0 L), and the system was tightly closed. The contents were mixed at 25°C for 5 minutes. The resultant liquid mixture was allowed to stand for 10 minutes, and then the state of the liquid mixture was visually observed.

Row | pH [1] | solubility at 5 min (physchem; 25 °C, organic solvent or mixture, thermodynamic from solid) | SMILES | solubility in cyclohexane at 25°C (physchem; 1.0 g in 1.0 L cyclohexane, mixed 5 minutes, stood 10 minutes, visual)
1 | 3 |  | CCCCC(CC)C(=O)O (centres unmarked) [b-1, 2-ethylhexanonic acid] | 
2 | 4 | ≥ 1000 µg/mL | O=C(O)c1ccccc1C(=O)O [b-2, phthalic acid] | 
3 |  |  | CCCCC(CC)COP(=O)(O)OCC(CC)CCCC (centres unmarked) [b-4, bis(2-ethylhexyl) phosphate] | ≥ 1000 µg/mL

Row | SMILES | pH [1] | solubility at 5 min (physchem; 25 °C, organic solvent or mixture, thermodynamic from solid) | solubility in cyclohexane at 25°C (physchem; 1.0 g in 1.0 L cyclohexane, mixed 5 minutes, stood 10 minutes, visual)
4 | Cl [b-3, hydrochloric acid] | 1 |  | 
